Measurements published in patent US12415926B2, “Small tunable fluorophores for the detection and imaging of biomolecules” (The University Court of the University of Edinburgh, priority 2019, dated 2025).

Legend:
[1] = test system: HeLa cells; experiment: Cytotoxicity assay in HeLa cells; details: 100 μM and 75 μM (1% DMSO), 4 h at 37° C.
Protocol: Cell viabilities were normalized to incubation in cell culture media under the same experimental conditions. A solution of 40% DMSO in cell culture media was used as a known cytotoxic positive control. Values represented as means±s.e.m. (n=3).

[2] = Optical properties of SCOTfluors (absorbance, emission, extinction coefficient, quantum yield, solvatochromism); assay type: physicochemical
Protocol: All compounds were dissolved in different organic solvents, including toluene, chloroform, tetrahydrofuran, ethanol, DMSO and water (final concentrations: 10-50 μM). Fluorescence spectra were acquired on a spectrophotometer upon excitation at their maxima absorbance wavelengths.
The optical properties of SCOTfluor-80, 79, 78, 76 and 81 were compared with the properties of the original NBD.

[3] = test system: HeLa cells; experiment: TIRF single-particle tracking of intracellular diffusion; assay type: cell-based, human; details: DMOG-treated (10 μM) vs untreated, 100 μM
Protocol: (§1) B) Fluorescence emission of live cells after incubation with compound SCOTfluor-84 (100 μM) at different oxygen tensions (normoxia: blue; hypoxia: red) and in normoxic cells after competition with lactic acid (no lactate: red; 5 mM lactate: blue). Values as means and s.e.m as error bars. C) Time-lapse TIRF tracking of fluorescent particles in untreated (top) and DMOG-treated (10 μM, bottom) HeLa cells after incubation with compound SCOTfluor-84 (100 μM). Scale bars: 1 μm. D) Histograms of the diffusion coefficients of fluorescent particles in normoxic (blue) and hypoxic (red) cells. Dotted lines delineate fast and slow diffusion species. Mean diffusion coefficients (D) were determined after averaging the tracks of multiple particles for each condition (n=1,009 for untreated; n=2,906 for DMOG-treated).
Imaging was performed using a home-built, bespoke single-molecule total internal reflection fluorescence (TIRF) microscope. […] Fluorescence collected by the same objective was separated from the returning TIR beam by a dichroic mirror DI02-R514 (Semrock) for 515 nm and was passed through appropriate filters [515 nm: BLP01-561R, FF01-607/36 (Semrock)]. Fluorescence was then passed through a 2.5× beam expander and recorded on an EMCCD camera (Delta Evolve 512, Photometrics) operating in frame transfer mode (EMGain=11.5 e^−/ADU and 250 ADU/photon). […]

[4] = test system: Neutrophils; experiment: Uptake of lactic acid analogue in live cells by flow cytometry (hypoxia/normoxia, lactate competition); assay type: cell-based, human
Protocol: as §1
Ex vivo experiments with fresh human peripheral blood from healthy donors were approved by the Accredited Medical Regional Ethics Committee (AMREC, reference number 15-HV-013). Peripheral blood polymorphonuclear cells from healthy volunteers were isolated as previously described. Briefly, citrated blood (3.8%) was centrifuged at room temperature at 350 g for 20 min, platelet-rich plasma was removed and separation from erythrocytes was achieved by Dextran sedimentation and fractionation of leukocytes using isotonic Percoll gradient. […] Flow cytometry data were analyzed using FlowJo software. […]

SMILES: O=C(O)[C@H](O)CNc1ccc([N+](=O)[O-])c2n[se]nc12 [SCOTfluor-84, (R)-2-hydroxy-3-((7-nitrobenzo[c][1,2,5]selenadiazol-4-yl)amino)propanoic acid]
- cytotoxicity (cell viability) [1]: no significant cytotoxicity
- emission [2]: ~605 nm
- mean diffusion coefficients of fluorescent particles, hypoxic vs normoxic cells [3]: higher mean diffusion coefficients
- uptake in hypoxic vs normoxic cells ([4]; hypoxic (1% O2) vs normoxic (20% O2), 100 μM): Increased uptake
- fluorescence staining under competition with excess lactic acid ([4]; normoxic cells, 5 mM lactic acid): markedly reduced
